Test system: HBV
Assay: Anti-HBV activity in vitro: quantification of extracellular HBV DNA by direct qPCR in HepAD38 cells
Format: cell-based
Details: Hepatitis B virus, tetracycline-free medium, 96 hours at 37°C, reported as EC50 threshold value, read-out: HBV inh EC50
Source text: HepAD38 cell line (Ladner et al., Antimicrob Agents Chemother, 1997, 41, 1715-20) was used for HBV inhibition assays. HepAD38 is a subclone, derived from Hepatoblastoma cell line HepG2 (ATCC® Number: HB-8065™), that expresses HBV genome under the transcriptional control of a tetracycline-responsive promoter in a TET-OFF system: addition of tetracycline (TET) or doxycycline suppresses HBV replication, while its removal switches on the process allowing HBV viral particles release in the cell supernatant. HepAD38 cell line is maintained in DMEM/F12, supplemented with 10% of fetal bovine serum, 1% of glutamine, 1% of penicillin/streptomycin, 0.4 mg/ml G418 and 0,3 ug/ml tetracycline. For the HBV inhibition assay, doxycycline-free medium is used in order to allow virion production.
HBV inhibition activity in vitro was performed in 96 multiwell plates. During the initial (primary) screening, compounds were first tested in triplicates at concentrations of 0.02 µM, 0.1 µM, 0.5µM and 1µM. For selected compounds, an 8-point dose-response curve was obtained using 1:2 serial dilutions (starting from 0.01µM, 0.1µM, 0.4µM or 5 µM, depending on the degree of inhibition observed during the primary screening). From the dose-response curves, half maximal effective concentration (EC50) could be calculated (see also below).
In more detail, compounds - typically dissolved in DMSO stock solutions - were diluted to 2x the final desired concentration in 100 µl of the above medium (without doxycycline) and plated in three replicates in the 96-well plates.
Simultaneously, HepAD38 cells - extensively pre-washed in tetracycline-free medium in order to induce HBV production - were suspended at 2^∗10^4 cells in 100 µl of tetracycline-free medium and added to each well of the plate, to yield a final assay volume of 200 µl DMSO - used for stock solutions and compounds dilutions - which was always present in the assays at a final concentration of 0.5%.
Plates were then incubated 96 hours at 37°C and then subjected to cell viability assays and extracellular HBV quantification, in order to evaluate both the cytotoxic potential and the antiviral activity of compounds. Cytotoxicity was assessed by a commercial fluorescence assay that measures the metabolic activity of cells, directly related to cell viability (Cell Titer Blue, Promega). Anti-HBV activity was evaluated by quantification of extracellular HBV DNA with direct qPCR. In particular, supernatant was collected and centrifuged for cell debris clarification, viral DNA was extracted from virions by addition of lysis buffer (1 mM 1,4-dithiothreitol, 0.2% sodium dodecyl sulphate) and incubated at 95°C for 10 min. Samples were then diluted 1:40 and real time PCR amplification was performed with SYBR green assay (Power SYBR™ Green PCR Master Mix-Thermo Fisher Scientific) and specific HBV primer (HBV-DF:5'-[…]-3' (SEQ ID No. 1), HBV-DR:5'-[…]-3' (SEQ ID No.2)).
Antiviral activity data for each compound are reported as EC50 threshold value (see Table 1 legend). Excel and Graphpad Prism programs are typically used for data elaboration and EC50 calculation.

Cc1cc(NC(=O)c2c3c(cn2C)S(=O)(=O)N[C@@H]2CN(C(=O)C(=O)N[C@H](C)C(F)(F)F)C[C@]2(C)CO3)ccc1F (stereo in doubt) [Example E26, Cis-N-(4-fluoro-3-methylphenyl)-7,10a-dimethyl-2-(2-oxo-2-(((R)-1,1,1-trifluoropropan-2-yl)amino)acetyl)-2,3,3a,4,10,10a-hexahydro-1H,7H-dipyrrolo[3,4-b:3',4'-f][1,4,5]oxathiazocine-8-carboxamide 5,5-dioxide]
EC50: < 500 nM

Cc1cc(NC(=O)c2c3c(cn2C)S(=O)(=O)N[C@]2(C)CN(C(=O)C(=O)N[C@H](C)C(F)(F)F)C[C@@H]2CO3)ccc1F (stereo in doubt) [Example E27, Cis-N-(4-fluoro-3-methylphenyl)-3a,7-dimethyl-2-(2-oxo-2-(((R)-1,1,1-trifluoropropan-2-yl)amino)acetyl)-2,3,3a,4,10,10a-hexahydro-1H,7H-dipyrrolo[3,4-b:3',4'-f][1,4,5] oxathiazocine-8-carboxamide 5,5-dioxide]
EC50: < 500 nM

Cc1cc(NC(=O)c2c3c(cn2C)S(=O)(=O)N[C@@H]2CN(C(=O)C(=O)N[C@H](C)C(F)(F)F)C[C@H]2CO3)ccc1F (stereo in doubt) [Example E30, trans-N-(4-fluoro-3-methylphenyl)-7-methyl-2-(2-oxo-2-(((R)-1,1,1-trifluoropropan-2-yl)amino)acetyl)-2,3,3a,4,10,10a-hexahydro-1H,7H-dipyrrolo[3,4-b:3',4'-f][1,4,5]oxathiazocine-8-carboxamide 5,5-dioxide]
EC50: < 500 nM

Cc1cc(NC(=O)c2c3c(cn2C)S(=O)(=O)N[C@H]2CN(C(=O)C(=O)NC4(C)COC4)C[C@H]2CO3)ccc1F [Example E3, (3aR,10aR)-N-(4-fluoro-3-methylphenyl)-7-methyl-2-(2-((3-methyloxetan-3-yl)amino)-2-oxoacetyl)-2,3,3a,4,10,10a-hexahydro-1H,7H-dipyrrolo[3,4-b:3',4'-f][1,4,5]oxathiazocine-8-carboxamide 5,5-dioxide]
EC50: < 500 nM

Cn1cc2c(c1C(=O)Nc1cc(F)c(F)c(F)c1)OC[C@@H]1CN(C(=O)C(=O)NC3(C)COC3)C[C@@H]1NS2(=O)=O [Example E4, (3aR,10aR)-7-methyl-2-(2-((3-methyloxetan-3-yl)amino)-2-oxoacetyl)-N-(3,4,5-trifluorophenyl)-2,3,3a,4,10,10a-hexahydro-1H,7H-dipyrrolo[3,4-b:3',4'-f][1,4,5]oxathiazocine-8-carboxamide 5,5-dioxide]
EC50: < 500 nM

Cn1cc2c(c1C(=O)Nc1ccc(F)c(Cl)c1)OC[C@@H]1CN(C(=O)C(=O)NC3(C)COC3)C[C@@H]1NS2(=O)=O [Example E5, (3aR,10aR)-N-(3-chloro-4-fluorophenyl)-7-methyl-2-(2-((3-methyloxetan-3-yl)amino)-2-oxoacetyl)-2,3,3a,4,10,10a-hexahydro-1H,7H-dipyrrolo[3,4-b:3',4'-f][1,4,5] oxathiazocine-8-carboxamide 5,5-dioxide]
EC50: < 500 nM

Cn1cc2c(c1C(=O)Nc1ccc(F)c(C#N)c1)OC[C@@H]1CN(C(=O)C(=O)NC3(C)COC3)C[C@@H]1NS2(=O)=O [Example E6, (3aR,10aR)-N-(3-cyano-4-fluorophenyl)-7-methyl-2-(2-((3-methyloxetan-3-yl)amino)-2-oxoacetyl)-2,3,3a,4,10,10a-hexahydro-1H,7H-dipyrrolo[3,4-b:3',4'-f][1,4,5] oxathiazocine-8-carboxamide 5,5-dioxide]
EC50: > 500 nM

Cc1cc(NC(=O)c2c3c(cn2C)S(=O)(=O)N[C@H]2CN(C(=O)C(=O)NC(C)(C)C)C[C@H]2CO3)ccc1F [Example E7, (3aR,10aR)-2-(2-(tert-butylamino)-2-oxoacetyl)-N-(4-fluoro-3-methylphenyl)-7-methyl-2,3,3a,4,10,10a-hexahydro-1H,7H-dipyrrolo[3,4-b:3',4'-f][1,4,5]oxathiazocine-8-carboxamide 5,5-dioxide]
EC50: < 500 nM

Cc1cc(NC(=O)c2c3c(cn2C)S(=O)(=O)N[C@H]2CN(C(=O)C(=O)NC4CC4)C[C@H]2CO3)ccc1F [Example E8, (3aR,10aR)-2-(2-(cyclopropylamino)-2-oxoacetyl)-N-(4-fluoro-3-methylphenyl)-7-methyl-2,3,3a,4,10,10a-hexahydro-1H,7H-dipyrrolo[3,4-b:3',4'-f][1,4,5]oxathiazocine-8-carboxamide 5,5-dioxide]
EC50: < 500 nM

Cc1cc(NC(=O)c2c3c(cn2C)S(=O)(=O)N[C@H]2CN(C(=O)C(=O)N[C@H](C)C(F)(F)F)C[C@H]2CO3)ccc1F [Example E9, (3aR,10aR)-N-(4-fluoro-3-methylphenyl)-7-methyl-2-(2-oxo-2-(((R)-1,1,1-trifluoropropan-2-yl)amino)acetyl)-2,3,3a,4,10,10a-hexahydro-1H,7H-dipyrrolo[3,4-b:3',4'-f][1,4,5]oxathiazocine-8-carboxamide 5,5-dioxide]
EC50: < 500 nM

Cc1cc(NC(=O)c2c3c(cn2C)S(=O)(=O)N[C@H]2CN(C(=O)C(=O)NC4CC(F)(F)C4)C[C@H]2CO3)ccc1F [Example E14, (3aR,10aR)-2-(2-((3,3-difluorocyclobutyl)amino)-2-oxoacetyl)-N-(4-fluoro-3-methylphenyl)-7-methyl-2,3,3a,4,10,10a-hexahydro-1H,7H-dipyrrolo[3,4-b:3',4'-f][1,4,5]oxathiazocine-8-carboxamide 5,5-dioxide]
EC50: < 500 nM

Cc1cc(NC(=O)c2c3c(cn2C)S(=O)(=O)N[C@H]2CN(C(=O)C(=O)N[C@@H](C)C(F)(F)F)C[C@H]2CO3)ccc1F [Example E15, (3aR,10aR)-N-(4-fluoro-3-methylphenyl)-7-methyl-2-(2-oxo-2-(((S)-1,1,1-trifluoropropan-2-yl)amino)acetyl)-2,3,3a,4,10,10a-hexahydro-1H,7H-dipyrrolo[3,4-b:3',4'-f][1,4,5]oxathiazocine-8-carboxamide 5,5-dioxide]
EC50: < 500 nM

Cc1cc(NC(=O)c2c3c(cn2C)S(=O)(=O)N[C@H]2CN(C(=O)C(=O)NCC(C)C)C[C@H]2CO3)ccc1F [Example E16, (3aR,10aR)-N-(4-fluoro-3-methylphenyl)-2-(2-(isobutylamino)-2-oxoacetyl)-7-methyl-2,3,3a,4,10,10a-hexahydro-1H,7H-dipyrrolo[3,4-b:3',4'-f][1,4,5]oxathiazocine-8-carboxamide 5,5-dioxide]
EC50: < 500 nM

Cc1cc(NC(=O)c2c3c(cn2C)S(=O)(=O)N[C@H]2CN(C(=O)C(=O)NCC(F)(F)F)C[C@H]2CO3)ccc1F [Example E17, (3aR,10aR)-N-(4-fluoro-3-methylphenyl)-7-methyl-2-(2-oxo-2-((2,2,2-trifluoroethyl)amino)acetyl)-2,3,3a,4,10,10a-hexahydro-1H,7H-dipyrrolo[3,4-b:3',4'-f][1,4,5]oxathiazocine-8-carboxamide 5,5-dioxide]
EC50: < 500 nM

Cc1cc(NC(=O)c2c3c(cn2C)S(=O)(=O)N[C@H]2CN(C(=O)C(=O)NC4(C)CC4)C[C@H]2CO3)ccc1F [Example E18, (3aR,10aR)-N-(4-fluoro-3-methylphenyl)-7-methyl-2-(2-((1-methylcyclopropyl)amino)-2-oxoacetyl)-2,3,3a,4,10,10a-hexahydro-1H,7H-dipyrrolo[3,4-b:3',4'-f][1,4,5]oxathiazocine-8-carboxamide 5,5-dioxide]
EC50: < 500 nM

Cc1cc(NC(=O)c2c3c(cn2C)S(=O)(=O)N[C@H]2CN(C(=O)C(=O)NC4(C(F)(F)F)CC4)C[C@H]2CO3)ccc1F [Example E19, (3aR,10aR)-N-(4-fluoro-3-methylphenyl)-7-methyl-2-(2-oxo-2-((1-(trifluoromethyl)cyclopropyl)amino)acetyl)-2,3,3a,4,10,10a-hexahydro-1H,7H-dipyrrolo[3,4-b:3',4'-f][1,4,5]oxathiazocine-8-carboxamide 5,5-dioxide]
EC50: < 500 nM

Cc1cc(NC(=O)c2c3c(cn2C)S(=O)(=O)N[C@H]2CN(C(=O)C(=O)NCC4CC4)C[C@H]2CO3)ccc1F [Example E20, (3aR,10aR)-2-(2-((cyclopropylmethyl)amino)-2-oxoacetyl)-N-(4-fluoro-3-methylphenyl)-7-methyl-2,3,3a,4,10,10a-hexahydro-1H,7H-dipyrrolo[3,4-b:3',4'-f][1,4,5]oxathiazocine-8-carboxamide 5,5-dioxide]
EC50: < 500 nM

Reference: patent EP3741762A1, “OXALAMIDO-SUBSTITUTED TRICYCLIC INHIBITORS OF HEPATITIS B VIRUS” (priority 2019, dated 2020)
